Among the data in US20250051327A1, “MALT-1 MODULATORS” (EXSCIENTIA AI LIMITED, priority 2020, published 2025) are IC50 values, retold here.

Assay [1] relates to IL-2 secretion by human effector memory T cells (TEM). As to the kind of experiment: Effector memory T cells IL-2 release assay. The following applies: T-cell; human CD4+ effector memory T cells, CD3/CD28 bead stimulation, 24 h; read-out: CD4TC IL2 IC50. The format is cell-based. A digest of the protocol:
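Human CD4+ effector memory T cells from healthy-donor buffy coats were stimulated with anti-CD3/CD28 Dynabeads and exposed to 10 semi-log compound doses (0.1% DMSO) for 24 h at 37 °C. Supernatant IL-2 was measured by HTRF, and IC50 came from a 4-parameter logistic fit to maximal IL-2. Viability was checked by flow cytometry.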

The target of assay [2] is Recombinant human MALT-1 (amino acids 340-824) (Homo sapiens (Human), UniProt Q9UDY8). The assay can be described thus: MALT-1 inhibition assay (fluorogenic substrate Ac-LRSR-Rh110-DP). Particulars: recombinant human MALT-1, substrate Ac-LRSR-Rh110-DP. It is filed as biochemical. A digest of the protocol:
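Reactions were started with fluorogenic substrate Ac-LRSR-Rh110-DP (10 μM final) against 3 nM enzyme and kept dark at 25° C for 60 minutes. IC50 values came from 4-parameter logistic fits of percent inhibition calculated from relative fluorescence units.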

pIC50: −log10 of the molar value.

As usually defined, the pIC50 is the IC50 on a negative log10 scale, so that one unit is a factor of ten.

Recombinant human MALT-1 (amino acids 340-824), sequence (Q9UDY8 340-824): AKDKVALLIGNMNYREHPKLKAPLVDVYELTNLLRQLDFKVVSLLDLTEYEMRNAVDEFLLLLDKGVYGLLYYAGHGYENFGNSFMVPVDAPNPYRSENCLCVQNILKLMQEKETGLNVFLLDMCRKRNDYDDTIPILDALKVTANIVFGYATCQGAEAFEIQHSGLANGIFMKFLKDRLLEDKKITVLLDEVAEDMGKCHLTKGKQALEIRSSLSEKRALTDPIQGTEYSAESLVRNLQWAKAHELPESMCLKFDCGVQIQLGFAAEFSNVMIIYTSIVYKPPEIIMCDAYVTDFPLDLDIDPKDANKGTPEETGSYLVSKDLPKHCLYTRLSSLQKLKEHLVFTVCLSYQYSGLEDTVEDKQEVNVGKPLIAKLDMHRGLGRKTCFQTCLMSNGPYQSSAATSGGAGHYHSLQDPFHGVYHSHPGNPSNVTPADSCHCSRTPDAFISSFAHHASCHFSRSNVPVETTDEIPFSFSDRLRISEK

In the case of `CC1CCN(c2ccc([C@H](N(C)C(=O)C3CCS(=O)(=O)CC3)C(F)(F)F)cn2)c2cnc3cc(Cl)nn3c21` (stereo partly drawn) [CPD0021812, N-[(1S)-1-(6-{4-chloro-13-methyl-2,3,7,10-tetraazatricyclo[7.4.0.0^2,6]trideca-1(9),3,5,7-tetraen-10-yl}pyridin-3-yl)-2,2,2-trifluoroethyl]-N-methyl-1,1-dioxo-1λ^6-thiane-4-carboxamide], the values for the pIC50 in assay [1] and in assay [2] were 6.67 and 6.97, respectively.
In the same order, the values of `Cc1cc(N2CCCc3c2cnc2cc(Cl)nn32)ccc1[C@H](N(C)C(=O)C1CCS(=O)(=O)CC1)C(F)(F)F` [CPD0072808, N-[(1S)-1-(4-{4-chloro-2,3,7,10-tetraazatricyclo[7.4.0.0^2,6]trideca-1(9),3,5,7-tetraen-10-yl}-2-methylphenyl)-2,2,2-trifluoroethyl]-N-methyl-1,1-dioxo-1λ^6-thiane-4-carboxamide] are 6.63 and 6.90.
Regarding `CN(C(=O)[C@H]1CCS(=O)(=O)C1)[C@@H](c1ccc(N2CCCc3c2cnc2cc(Cl)nn32)cc1)C(F)(F)F` (relative stereo) [CPD0022134, (3rel-R)-N-[(1S)-1-(4-{4-chloro-2,3,7,10-tetraazatricyclo[7.4.0.0^2,6]trideca-1(9),3,5,7-tetraen-10-yl}phenyl)-2,2,2-trifluoroethyl]-N-methyl-1,1-dioxo-1λ^6-thiolane-3-carboxamide], the values for the pIC50 in assay [1] and in assay [2] were 6.76 and 6.87, respectively.
As to `CN(C(=O)[C@H]1CC[S@@](=N)(=O)CC1)[C@@H](c1ccc(N2CCC3(CC3)c3c2cnc2cc(Cl)nn32)cc1)C(F)(F)F` [CPD0072772, (1rel-s,4rel-s)-N-[(1S)-1-(4-{4′-chloro-2′,3′,7′, 10′-tetraazaspiro[cyclopropane-1,13′-tricyclo[7.4.0.0^2,6]tridecane]-1′(9′),3′,5′,7′-tetraen-10′-yl}phenyl)-2,2,2-trifluoroethyl]-1-imino-N-methyl-1-oxo-1λ^6-thiane-4-carboxamide], the negative-log IC50 (pIC50) in assay [1] and in assay [2] was 7.57 in each case.
As to `Cc1cn2ncc(Nc3ccc([C@H](N(C)C(=O)C4CCS(=O)(=O)CC4)C(F)(F)F)cc3)cc2n1` [CPD0018617, N-methyl-1,1-dioxo-N-[(1S)-2,2,2-trifluoro-1-[4-({2-methylimidazo[1,2-b]pyridazin-7-yl}amino)phenyl]ethyl]-1λ^6-thiane-4-carboxamide], the pIC50 in assay [1] is 6.41; in assay [2], 6.22.
In the same order, the values of `CN(C(=O)C1CCS(=O)(=O)CC1)[C@@H](c1ccc(N2CC(C)(C)c3c2cnc2cc(Cl)nn32)cc1)C(F)(F)F` [CPD0019494, N-[(1S)-1-(4-{11-chloro-3,3-dimethyl-1,5,8,12-tetraazatricyclo[7.3.0.0^2,6]dodeca-2(6),7,9,11-tetraen-5-yl}phenyl)-2,2,2-trifluoroethyl]-N-methyl-1,1-dioxo-1λ^6-thiane-4-carboxamide] are 7.23 and 7.60.
In the same order, the values of `COCC1CCN(c2ccc([C@H](N(C)C(=O)C3CCS(=O)(=O)CC3)C(F)(F)F)cc2)c2cnc3cc(Cl)nn3c21` (stereo partly drawn) [CPD0072775] are 6.84 and 7.03.
For `CN(C(=O)[C@H]1C[C@H]([S@+](C)(=N)[O-])C1)[C@@H](c1ccc(N2CCCc3c2cnc2cc(Cl)nn32)cc1)C(F)(F)F` [CPD0073226, (1R,3s)-N-[(1S)-1-(4-{4-chloro-2,3,7,10-tetraazatricyclo[7.4.0.0^2,6]trideca-1(9),3,5,7-tetraen-10-yl}phenyl)-2,2,2-trifluoroethyl]-3-[(S)-imino(methyl)oxo-λ^6-sulfanyl]-N-methylcyclobutane-1-carboxamide], in that order: 6.98 and 7.22.
Turning to `CN(C(=O)[C@H]1C[C@](O)(C(F)(F)F)C1)[C@@H](c1ccc(N2CCCc3c2cnc2cc(Cl)nn32)cc1)C(F)(F)F` [CPD0072441, (1s,3s)-N-[(1S)-1-(4-{4-chloro-2,3,7,10-tetraazatricyclo[7.4.0.0^2,6]trideca-1(9),3,5,7-tetraen-10-yl}phenyl)-2,2,2-trifluoroethyl]-3-hydroxy-N-methyl-3-(trifluoromethyl)cyclobutane-1-carboxamide], the pIC50 was 6.65 in assay [1] and 6.95 in assay [2].
For `CN(C(=O)CC1CCOC1)[C@@H](c1ccc(N2CCCc3c2cnc2cc(Cl)nn32)cc1)C(F)(F)F` (stereo partly drawn) [CPD0021874, N-[(1S)-1-(4-{4-chloro-2,3,7,10-tetraazatricyclo[7.4.0.0^2,6]trideca-1(9),3,5,7-tetraen-10-yl}phenyl)-2,2,2-trifluoroethyl]-N-methyl-2-(oxolan-3-yl)acetamide], in that order: 6.68 and 6.59.
In the same order, the values of `CN(C(=O)[C@@H]1CCC(=O)NC1)[C@@H](c1ccc(N2CCCc3c2cnc2cc(Cl)nn32)cc1)C(F)(F)F` (relative stereo) [CPD0073568, (3rel-R)-N-[(1S)-1-(4-{4-chloro-2,3,7,10-tetraazatricyclo[7.4.0.0^2,6]trideca-1(9),3,5,7-tetraen-10-yl}phenyl)-2,2,2-trifluoroethyl]-N-methyl-6-oxopiperidine-3-carboxamide] are 6.88 and 7.42.
`CN(C(=O)C1CCOC1)[C@@H](c1ccc(N2CCCc3c2cnc2cc(Cl)nn32)cc1)C(F)(F)F` (stereo partly drawn) [CPD0021568, N-[(1S)-1-(4-{4-chloro-2,3,7,10-tetraazatricyclo[7.4.0.0^2,6]trideca-1(9),3,5,7-tetraen-10-yl}phenyl)-2,2,2-trifluoroethyl]-N-methyloxolane-3-carboxamide]: the pIC50 in assay [1] was 6.84; in assay [2], 6.77.
For `CN(C(=O)[C@@H](O)C1CCS(=O)(=O)CC1)[C@@H](c1ccc(N2CCCc3c2cnc2cc(Cl)nn32)cc1)C(F)(F)F` (relative stereo) [CPD0073973, (2rel-S)—N-[(1S)-1-(4-{4-chloro-2,3,7,10-tetraazatricyclo[7.4.0.0^2,6]trideca-1(9),3,5,7-tetraen-10-yl}phenyl)-2,2,2-trifluoroethyl]-2-(1,1-dioxo-1λ^e-thian-4-yl)-2-hydroxy-N-methylacetamide], in that order: 6.83 and 7.24.
On to `C[C@@H]1CCN(c2ccc([C@H](N(C)C(=O)[C@H]3CC[S@](=N)(=O)CC3)C(F)(F)F)cc2)c2cnc3cc(F)nn3c21` (relative stereo) [CPD0074555, (1rel s, 4rel s)1-imino-N-methyl-1-oxo-N-[(1S)-2,2,2-trifluoro-1-[4-[(13 rel R)-4-fluoro-13-methyl-2,3,7,10-tetrazatricyclo[7.4.0.0^2,6]trideca-1(9),3,5,7-tetraen-10-yl]phenyl]ethyl]thiane-4-carboxamide], for which the pIC50 in assay [1] is 7.00; in assay [2], 7.46.
On to `CN(C(=O)CN1CCS(=O)(=O)CC1)[C@@H](c1ccc(N2CCCc3c2cnc2cc(Cl)nn32)cc1)C(F)(F)F` [CPD0073572, N-[(1S)-1-(4-{4-chloro-2,3,7,10-tetraazatricyclo[7.4.0.0^2,6]trideca-1(9),3,5,7-tetraen-10-yl}phenyl)-2,2,2-trifluoroethyl]-2-(1,1-dioxo-1λ^6-thiomorpholin-4-yl)-N-methylacetamide], for which the results for the pIC50 in assay [1] and in assay [2] were 6.60 and 6.79, respectively.
In the same order, the values of `CN(C(=O)[C@H]1CCCS(=O)(=O)N1)[C@@H](c1ccc(N2CCCc3c2cnc2cc(Cl)nn32)cc1)C(F)(F)F` (relative stereo) [CPD0073560, (3rel-R)-N-[(1S)-1-(4-{4-chloro-2,3,7,10-tetraazatricyclo[7.4.0.0^2,6]trideca-1(9),3,5,7-tetraen-10-yl}phenyl)-2,2,2-trifluoroethyl]-N-methyl-1,1-dioxo-1λ^6,2-thiazinane-3-carboxamide] are 6.80 and 7.04.
In the case of `CN(C(=O)[C@H]1C[C@@H](S(C)(=O)=O)C1)[C@@H](c1ccc(N2CCCc3c2cnc2cc(Cl)nn32)cc1)C(F)(F)F` [CPD0073502, cis-N-[(1S)-1-(4-{4-chloro-2,3,7,10-tetraazatricyclo[7.4.0.0^2,6]trideca-1(9),3,5,7-tetraen-10-yl}phenyl)-2,2,2-trifluoroethyl]-3-methanesulfonyl-N-methylcyclobutane-1-carboxamide], the pIC50 in assay [1] is 6.98; in assay [2], 7.21.
For `COc1ccc2ncc(Nc3ccc([C@H](N(C)C(=O)C4CCS(=O)(=O)CC4)C(F)(F)F)cc3)c(C(C)OC)c2n1` (stereo partly drawn) [CPD0019079, N-methyl-1,1-dioxo-N-[(1S)-2,2,2-trifluoro-1-(4-{[6-methoxy-4-(1-methoxyethyl)-1,5-naphthyridin-3-yl]amino}phenyl)ethyl]-1λ^6-thiane-4-carboxamide], in that order: 6.99 and 6.83.
